Test results reported in publication PMC10666625, “Exploring the benefits of in-diet versus repeated oral dosing of saracatinib (AZD0530) in chronic studies: insights into pharmacokinetics and animal welfare” (Frontiers in Veterinary Science, 2023).

Assays:
[1] = 7-day repeated daily oral dosing study: serum and hippocampal concentrations; format: in vivo, Sprague Dawley rats
Procedure: (§1) The animals were randomized into four experimental groups (n = 4–8). In group 1 (24 h study; Figure 1A), eight animals received a single oral gavage of saracatinib (20 mg/kg), and the blood sampling was done at 0.5, 1, 2, 4, 6, 8, 12, and 24 h post-treatment. Four animals each were euthanized at 4 h and 24 h, respectively. In group 2 (7-day repeated oral dosing study; Figure 1B), eight animals received repeated daily oral dosing of saracatinib (20 mg/kg of rat) at 24 h intervals; the blood sampling was done daily at 24 h intervals before the next dosing. Four animals were euthanized 24 h after the third repeated oral dosing, i.e., day 3 and the other four animals were euthanized at day 7. Group 3 (7-day SAR-in-Diet study; Figure 1C), received a single oral gavage of saracatinib (20 mg/kg of rat) followed by 24 h later SAR-in-Diet for 7 days (260 ppm). The blood sampling was done at 24 h post oral and daily at 24 h intervals for 7 days while the animals were on SAR-in-Diet. Four animals each were euthanized on day 3 and 7. Group 4 (Figure 1D) included four animals that were given 7 repeated doses of oral saracatinib (20 mg/kg/day for a week) followed by ad-libitum SAR-in-Diet at varying concentrations fed for up to 18 weeks (260 ppm diet for 2 weeks, 210 ppm diet for a week, 160 ppm for 4 weeks, and 50 ppm diet for 11 weeks) The tapering concentrations of saracatinib in the diet from 260 to 50 ppm was done to target a daily saracatinib dose rate in the range of 20–5 mg/kg respectively, in a 24 h feeding cycle. Blood samples were collected at the end of each diet change.
(§2) Samples were submitted to the W.M. Keck Metabolomics Research Laboratory (Office of Biotechnology, Iowa State University, Ames, IA) for targeted saracatinib LC–MS/MS quantification. Serum and hippocampus preparations were conducted using a modified version of the previously available extraction and sample preparation methods previously established ([18], [19]). 50–75 μL or 50–75 mg wet weight of each sample was added to microcentrifuge tubes. […]

[2] = Stability at room temperature in solution or in diet by LC-MS/MS; format: physicochemical
Procedure: Samples were submitted to the W.M. Keck Metabolomics Research Laboratory (Office of Biotechnology, Iowa State University, Ames, IA) for targeted saracatinib LC–MS/MS quantification. One or two food pellets (1.5–3 g) were homogenized by mortar-and-pestle before being transferred and weighed in glass tubes with Teflon-lined screw caps. A reagent control sample was generated for each sample batch which was prepared in the same fashion as the samples. The weighed samples were then spiked with the internal standard, 250 μg of S-Hexylglutathione (Sigma-Aldrich CO., St. Louis, MO), added as 1.0 mL of from a 0.25 mg/mL solution in LC–MS grade 9:1 methanol: acetonitrile (Fisher Scientific, Waltham, MA). The extraction was initiated by the addition of 8 mL of 90% LC–MS grade methanol with 10% LC–MS grade water (Fisher Scientific, Waltham, MA). […]
LC separations were performed with an Agilent Technologies 1,290 Infinity Binary Pump UHPLC instrument equipped with an Agilent Technologies Eclipse C18 1.8 μm 2.1 mm × 100 mm analytical column that was coupled to an Agilent Technologies 6,540 UHD Accurate-Mass Q-TOF mass spectrometer (Agilent Technologies, Santa Clara, CA). […] Saracatinib was detected using electrospray ionization in positive ionization mode. […] During LC–MS data acquisition, reference masses were monitored for continuous mass calibration: m/z 121.050873 with m/z 922.009698. […]

[3] = tested on: kainate (KA) model of temporal lobe epilepsy; parameters: method as in PMID 34087381; details: treating for a week, repeated oral dosing; cited from earlier work
[4] = tested on: ABCB1; parameters: method as in PMID 22623106; details: cited from earlier work
[5] = tested on: organophosphate (OP) induced epilepsy models; parameters: method as in PMID 35052568; details: treatment for a week; cited from earlier work
[6] = parameters: method as in PMID 19775203; details: healthy humans, 250 mg/day once daily for 10–14 days; cited from earlier work
[7] = Hippocampal concentrations after a single oral dose (24 h study); format: in vivo, Sprague Dawley rats; details: single oral dose 20 mg/kg
Procedure: as §1, §2

[8] = Serum pharmacokinetics after a single oral dose (24 h study), LC-MS/MS, noncompartmental analysis; format: in vivo, Sprague Dawley rats
Procedure: Twenty eight adult male Sprague Dawley rats (8 weeks old; 250-300 g; Charles River, United States) were used in the study. Animals were housed in individual cages with a 12-h light–dark cycle in an enriched environment. The experiments were conducted after 2–3 days of acclimatization as per the approved protocols by the Institutional Animal Care and Use Committees (IACUC protocol: 21–109) and complied with the NIH ARRIVE Guidelines for the Care and Use of Laboratory Animals. Blood sampling was done by retro-orbital puncture as per IACUC protocol. Maximal blood collection was limited to less than 7.5% of the […] in one week. The serum was separated by centrifugation at 1,000–1,500 × g for 10 min and stored at −80°C until further analysis. All animals were euthanized at the end of the study with pentobarbital sodium and phenytoin sodium (100 mg/kg, i.p.) as per the American Veterinary Medical Association Guidelines for euthanasia. Tissue samples were collected and stored at −80°C until further analysis.
as §1
Samples were submitted to the W.M. Keck Metabolomics Research Laboratory (Office of Biotechnology, Iowa State University, Ames, IA) for targeted saracatinib LC–MS/MS quantification. Serum and hippocampus preparations were conducted using a modified version of the previously available extraction and sample preparation methods previously established ([18], [19]). 50–75 μL or 50–75 mg wet weight of each sample was added to microcentrifuge tubes. A Reagent control sample was generated for each sample batch, 75 μL of 0.9% NaCl which was extracted in the same fashion as the samples. The weighed samples were then spiked with the internal standard, 1.25 μg of S-Hexylglutathione (Sigma-Aldrich CO., St. Louis, MO), added as 10 μL of from a 0.125 mg/mL solution in LC–MS grade 9:1 methanol: acetonitrile (Fisher Scientific, Waltham, MA). The extraction was initiated by the addition of 0.4 mL of 90% ice-cold LC–MS grade methanol with 10% LC–MS grade water (Fisher Scientific, Waltham, MA). For the hippocampus samples, after adding the 90% methanol to the samples, two 2.4 mm metal beads were added to each sample, the tissue was then homogenized using a Bead Mill 24 Homogenizer (Thermo Fisher Scientific, Inc., Waltham, MA, United States). […]

[9] = male, Sprague Dawley, single oral dose 20 mg/kg, rat serum, median, n=4

CN1CCN(CCOc2cc(OC3CCOCC3)c3c(Nc4c(Cl)ccc5c4OCO5)ncnc3c2)CC1 [saracatinib, Saracatinib]
concentration at 3 day ([1]; male, Sprague Dawley, rat, hippocampus, repeated oral dosing 20 mg/kg/day, day 3, read-out: Hippocampal saracatinib concentration): 239 ± 143 ng/g | concentration at 7 day ([1]; male, Sprague Dawley, rat, hippocampus, repeated oral dosing 20 mg/kg/day, day 7, read-out: Hippocampal saracatinib concentration): 271 ± 62.3 ng/g | Serum saracatinib concentration (trough, 24 h after dose) ([1]; repeated daily oral dosing 20 mg/kg, first three days): ~ 100 ng/mL | Time stable at room temperature [2]: > 4 weeks | Stability at room temperature (percent) ([2]; >4 weeks): 97 ± 1.56% | Long-term effects (reactive gliosis, neurodegeneration, epileptiform spiking, spontaneously recurring seizures) [3]: sufficient to mitigate long-term effects | Effect on ABCB1 [4]: only inhibits ABCB1 transport function, without altering ABCB1 expression or AKT phosphorylation | Protective effects [5]: limited | T1/2 [6]: 40 h | Tolerability [6]: well tolerated | concentration at 4 h ([7]; male, Sprague Dawley, rat, hippocampus, 4 h, read-out: Hippocampal level): > 500 ng/g | Hippocampal versus serum concentrations ([7]; 4 h and 24 h): higher than the serum concentrations | Hippocampal concentration at 24 h compared to 4 h ([7]; 24 h): dropped to nearly half | Time saracatinib was detected in the serum ([8]; after a single oral dose 20 mg/kg): up to 24 h | Tmax ([8]; male, Sprague Dawley, rat, serum, po, 20 mg/kg, single oral dose 20 mg/kg, rat serum, median, n=4): 6 h | AUC(0-t) ([8]; male, Sprague Dawley, single oral dose 20 mg/kg, rat serum, 0 to 24 h, median, n=4, read-out: AUC (0-tlast)): 6990 ng·h/mL | AUC(0-inf) [8, 9]: 7060 ng·h/mL | CL/F [8, 9]: 47.2 mL/min/kg | Cmax [8, 9]: 954 ng/mL | Vd/F [8, 9]: 15.6 L/kg | half-life [8, 9]: 4.12 h | k el [8, 9]: 5e-05 s⁻¹
